Several values for one entry are separate records, joined by “and”; a condition that tells them apart may be missing. Equal values may be shown once. Read-outs that look alike come from different tables or passages of the source.
B1: PDI: enzyme protein disulfide isomerase (EC 5.3.4.1); bovine liver PDI from Sigma-Aldrich used in the assay (protein, UniProt P05307 21-510, looked up)
Protein disulfide-isomerase: APDEEDHVLVLHKGNFDEALAAHKYLLVEFYAPWCGHCKALAPEYAKAAGKLKAEGSEIRLAKVDATEESDLAQQYGVRGYPTIKFFKNGDTASPKEYTAGREADDIVNWLKKRTGPAASTLSDGAAAEALVESSEVAVIGFFKDMESDSAKQFFLAAEVIDDIPFGITSNSDVFSKYQLDKDGVVLFKKFDEGRNNFEGEVTKEKLLDFIKHNQLPLVIEFTEQTAPKIFGGEIKTHILLFLPKSVSDYEGKLSNFKKAAESFKGKILFIFIDSDHTDNQRILEFFGLKKEECPAVRLITLEEEMTKYKPESDELTAEKITEFCHRFLEGKIKPHLMSQELPDDWDKQPVKVLVGKNFEEVAFDEKKNVFVEFYAPWCGHCKQLAPIWDKLGETYKDHENIVIAKMDSTANEVEAVKVHSFPTLKFFPASADRTVIDYNGERTLDGFKKFLESGGQDGAGDDDDLEDLEEAEEPDLEEDDDQKAVKDEL

How the values were obtained:
[1] = cited from earlier work
[2] = Determination of disulfide E°′ (equilibration with oxidized β-mercaptoethanol, analytical HPLC, Nernst equation); format: physicochemical; details: equilibrium with βME^ox, mean of three measurements
Description: (§1) Dithiol 2 was synthesized from diethylenetriamine in a few high-yielding steps (see: The Examples). Thiol pKa values were measured by monitored the thiols A238 am as a function of pH. […] These values are slightly less than those of BMC (Table 1), presumably due to the introduction of an additional electronegative nitrogen atom. To determine the reduction potential of the oxidized form of the dithiol, equimolar amounts of dithiol 2 and oxidized β-mercaptoethanol were equilibrated and the amount of each reduced and oxidized species was quantitated with analytical HPLC. […] Finally, to probe the effect of increasing hydrophobicity on catalyzing the formation of native disulfide bonds in proteins, dithiols 3-8 were synthesized.
The reduction potentials of BMC, 2, and 7 were determined as described previously. Briefly, an equilibrium was established between reduced BMC (or 2, 5, or 7) and βME^OX, and analyzed with analytical HPLC. The equilibrium concentrations were determined by integration of the peaks corresponding to βME and βME^ox. From these concentrations, the Keq for the reaction was determined and the reduction potential of BMC (or 2 or 7) was then calculated using the Nernst equation and EβME^OX^∘′=−0.260 V. The values reported are the mean (±SE) of three separate measurements for each compound

sRNase A = molecular target: T1, sRNase A (Bos taurus, UniProt P61823); assay: Assay for disulfide-bond isomerization activity: unscrambling of sRNase A to give native RNase A; format: biochemical, bovine; details: for Folding yield (%): native RNase A from sRNase A, 1 mM catalyst, 30° C., 50 mM Tris-HCl pH 7.6, GSH 1.0 mM, GSSG 0.2 mM, after 5 h
T1 construct: purchased Sigma-Aldrich
T1 sequence (P61823 27-150): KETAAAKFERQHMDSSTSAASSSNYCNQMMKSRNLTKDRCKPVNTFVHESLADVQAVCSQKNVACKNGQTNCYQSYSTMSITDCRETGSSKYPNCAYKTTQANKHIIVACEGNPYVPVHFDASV
Description: FIGS. 4A and 4B are graphs illustrating catalysis of disulfide-bond isomerization by PDI and PDI mimics 1-7. (4A) Is a graph of the time-course for the unscrambling of sRNase A to give native RNase A. All reactions were performed at 30° C. in 50 mM Tris-HCl buffer, pH 7.6, containing GSH (1.0 mM), GSSG (0.2 mM), and PDI or dithiol 1-7 (1.0 mM). (4B) Is a graph of yield of native RNase A achieved by PDI mimics 2-7 after 5 h as a function of the calculated log P values listed in Table 1.
Enzymatic catalysis provides an extremely sensitive measure of native protein structure. RNase A contains eight cysteine residues, which could form 105 (=7×5×3×1) distinct fully oxidized species, only one of which gives rises to enzymatic activity (FIG. 3). Accordingly, the ability of this panel of compounds to catalyze the isomerization of “scrambled” RNase A (sRNase A) was tested. “Scrambled” RNase A is a random mixture of oxidized species, compared to its native state. The isomerization reaction was monitored by measuring the gain of catalytic activity.
sRNase was prepared as described previously, and validated by its having low ribonucleolytic activity and few free thiols according to Ellman's assay. Bovine liver PDI was from Sigma-Aldrich (product #P3818). The activation of sRNase A in the presence of refolding catalysts was determined as described previously. Refolding reactions were performed at 30° C. in 50 mM Tris-HCl buffer, pH 7.6, containing GSH (1.0 mM), GSSG (0.2 mM), and catalyst (1.0 mM). Organocatalysts were delivered from 100-fold concentrated stock solutions in DMSO. Reactions were initiated by the addition of sRNase A to a final concentration of 5 μg/mL. Reaction progress was monitored by quantifying the cleavage of the substrate 6-FAM-dArUdAdA-6-TAMRA at 493/515 nm, as described previously. Assays were performed in triplicate at ambient temperature in a black polystyrene 96-well plate, in 200 μL of 0.10 M MES-NaOH buffer, pH 6.0, containing NaCl (0.10 M). The resulting fluorescence data were fitted to the equation kcat/KM=(ΔI/Δt)/(If−I0)[E], in which ΔI/Δt is the initial reaction velocity, I0 is the fluorescence intensity before addition of any ribonuclease, If is the fluorescence intensity after complete substrate hydrolysis, and [E] is the total ribonuclease concentration. Reaction progress was monitored every hour until the increase in activity leveled off (˜5 h). In FIG. 4A, data were fitted to eq 2. [active RNase A]=[sRNase A]t=0(1−e^[catalyst]tk^obs) (2)

[3] = Determination of thiol pKa values (A238 vs pH); format: physicochemical; details: potassium phosphate buffers of varied pH, absorbance at 238 nm, 0.10 M potassium phosphate buffers
Description: as §1
The thiol pKa values for 2 and 7 were determined by closely following a procedure reported previously that exploits the elevated absorbance of the deprotonated thiolate at 238 nm. […] [9, 55]
In eq 1, CT is the total thiol concentration, εSH^SH is the extinction coefficient of the doubly protonated form of 2 or 7, εSH^S− is the extinction coefficient of the singly protonated form of 2 or 7, and εS−^S− is the extinction coefficient of the doubly deprotonated form of 2 or 7.

[4] = PDI active-site disulfide; literature value [21, 22]; cited from earlier work
[5] = higher of two thiol pKa values, read-out: thiol pKa (second value)
[6] = lower of two thiol pKa values, read-out: thiol pKa (first value)

Row | Molecule | Disulfide E°′ [2] | Folding yield (%) (sRNase A) | pKa [3, 5] | pKa [3, 6] | other results
1 | O=C(CS)N[C@@H]1CCCC[C@H]1NC(=O)CS (racemic) [Dithiol 1, (±)-trans-1,2-bis(mercaptoacetamido)cyclohexane, reference compound] | −0.232 V | 42 ± 2% |  |  | thiol pKa (first value) ([1]; values from ref. [30]): 8.3; thiol pKa (second value) ([1]; values from ref. [30]): 9.9
2 | O=C(CS)NCCN(CCNC(=O)CS)C(=O)c1ccccc1 [Dithiol 6] |  | 60 ± 2% |  |  | 
3 | CCCC(=O)N(CCNC(=O)CS)CCNC(=O)CS [Dithiol 4] |  | 54 ± 4% |  |  | 
4 | CC(=O)N(CCNC(=O)CS)CCNC(=O)CS [Dithiol 3] |  | 45 ± 2% |  |  | 
5 | CCc1ccc(C(=O)N(CCNC(=O)CS)CCNC(=O)CS)cc1 [Dithiol 7] | −0.206 V | 66 ± 2% | 9.4 ± 0.2 | 8.1 ± 0.2 | increase of the yield of folded RNase A versus the uncatalyzed reaction (sRNase A; relative to uncatalyzed reaction (45 ± 2 %)): 47%
6 | O=C(CS)NCCNCCNC(=O)CS [Dithiol 2] |  | 50 ± 2% | 9.2 ± 0.1 | 8 ± 0.2 | Disulfide E°′ ([2]; listed as 2): −0.192 V; Disulfide E°′ ([2]; listed as dithiol 2): −0.192±0.003 V
7 | CCCCCC(=O)N(CCNC(=O)CS)CCNC(=O)CS [Dithiol 5] | −0.203 V | 57 ± 1% | 9.3 ± 0.3 | 8.1 ± 0.3 | 
8 | B1 |  | 87 ± 2% |  |  | pKa ([1]; N-terminal cysteine in the active site of PDI, literature value): 6.7; Disulfide E°′ [4]: −0.18 V and −0.180 V

Reference: US9630916B2, “Organocatalysts of oxidative protein folding” (Wisconsin Alumni Research Foundation, priority 2014, dated 2017)
